Values quoted from earlier work as cited in patent US20090311315A1, “Multimicroparticulate Oral Pharmaceutical Form with Modified Release of Angiotensin II Receptor Antagonists” (FLAMEL TECHNOLOGIES, S.A., priority 2005, published 2009).

Conditions: in vivo

| Molecule | elimination half-life [h] |
| --- | --- |
| CCOc1nc2cccc(C(=O)O)c2n1Cc1ccc(-c2ccccc2-c2nnn[nH]2)cc1 [cardesartan] | 4 to 9 |
| CCCCC(=O)N(Cc1ccc(-c2ccccc2-c2nnn[nH]2)cc1)[C@H](C(=O)O)C(C)C [valsartan] | 4 to 6 |
| eprosartan cilexitil | 5 to 9 |
